Laboratory results published in EP2727911B1, “Novel means and methods for treating malaria and other parasitic disorders” (Medizinische Hochschule Hannover, priority 2012, dated 2014).
Where a name gives a salt, the structure may show the parent alone.

Target: T1, Dd myosin-1b (Dictyostelium discoideum, UniProt P34092)
T1 sequence (P34092 1-1111): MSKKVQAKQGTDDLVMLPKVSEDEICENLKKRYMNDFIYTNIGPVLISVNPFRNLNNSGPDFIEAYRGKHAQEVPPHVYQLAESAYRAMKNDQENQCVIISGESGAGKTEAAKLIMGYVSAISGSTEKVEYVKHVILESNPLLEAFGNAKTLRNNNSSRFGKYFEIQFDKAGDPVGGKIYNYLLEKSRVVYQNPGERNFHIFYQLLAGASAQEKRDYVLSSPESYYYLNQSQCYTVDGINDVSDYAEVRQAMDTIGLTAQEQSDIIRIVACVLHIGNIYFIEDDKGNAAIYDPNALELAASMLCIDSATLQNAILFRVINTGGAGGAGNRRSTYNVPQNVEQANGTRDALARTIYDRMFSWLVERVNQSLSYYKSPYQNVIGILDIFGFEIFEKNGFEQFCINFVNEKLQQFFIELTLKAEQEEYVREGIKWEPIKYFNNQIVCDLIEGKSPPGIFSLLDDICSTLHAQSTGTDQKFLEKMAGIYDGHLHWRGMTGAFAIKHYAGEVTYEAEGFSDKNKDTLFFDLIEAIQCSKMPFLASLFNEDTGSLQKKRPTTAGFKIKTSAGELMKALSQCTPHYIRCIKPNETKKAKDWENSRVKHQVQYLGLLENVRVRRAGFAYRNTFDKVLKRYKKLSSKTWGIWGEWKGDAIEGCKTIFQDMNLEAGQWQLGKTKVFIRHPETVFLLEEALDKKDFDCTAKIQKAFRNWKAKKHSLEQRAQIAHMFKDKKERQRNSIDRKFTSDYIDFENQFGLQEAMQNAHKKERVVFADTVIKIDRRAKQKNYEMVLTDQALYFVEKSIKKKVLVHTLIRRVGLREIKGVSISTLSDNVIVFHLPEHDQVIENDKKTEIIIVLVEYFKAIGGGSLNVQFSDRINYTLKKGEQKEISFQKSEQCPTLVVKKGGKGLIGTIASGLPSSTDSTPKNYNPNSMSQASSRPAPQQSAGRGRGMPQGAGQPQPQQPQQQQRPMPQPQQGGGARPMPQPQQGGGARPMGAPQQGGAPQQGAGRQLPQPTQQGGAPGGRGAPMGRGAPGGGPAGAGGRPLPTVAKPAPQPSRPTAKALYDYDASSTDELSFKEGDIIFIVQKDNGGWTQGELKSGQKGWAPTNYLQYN
Assay: Actin-activated steady state ATPase assay (PK/LDH-coupled, photometric)
Type: biochemical
Conditions: in the presence of 30 µM F-actin, nonlinear regression
Protocol: In this assay, the ATPase activity of Dictyostelium discoideum myosin-1b is determined, preferably at a ligand concentration of 25µM. Furthermore, the IC50 concentration has been determined by measuring ATPase activity as a function of inhibitor concentration. Alternatively Dictyostelium discoideum myosin-2 can be used.
Actin-activated steady state ATPase experiments were performed following the absorbance change during NADH oxidation in a PK/LDH-coupled ATPase assay at 340 nm […] (Trentham (1972); Furch (1998)). The photometric steady state ATPase assay was applied to determine the potency of the small molecule compounds to inhibit the enzymatic activity of myosin. Dd myosin-1b was used as a model system for the target protein (Pf myosin A). All experiments were carried out in the presence of 30 µM F-actin and the corresponding half-maximal inhibitory concentrations (IC50) were determined by nonlinear regression.

Question: For COC(=N)Cc1ccc(O)cc1 [BIP13, Methyl-2-(4-hydroxyphenyl)acetimidate·hydrochloride], which IC50 is on record?
Answer: Its IC50 is 8.07 ± 0.8 µM.
